From publication PMC3506619, “NADP^+ Binding to the Regulatory Subunit of Methionine Adenosyltransferase II Increases Intersubunit Binding Affinity in the Hetero-Trimer” (PLoS ONE, 2012)
Where a chain is given by its changes, count along the chain named.

Assays:
[1] = biological target: T1, Truncated MAT II (α2 dimer + ΔS16 β) (Homo sapiens, UniProt P31153, G193S/A233V); assay: MAT activity assay (AdoMet synthesis); format: biochemical; conditions: 5 mM methionine, 37 °C, no added NADP+
T1 construct: gene MAT2A; ratio 2:1; with Methionine adenosyltransferase 2 subunit beta
Excerpt: MAT activity assay (AdoMet synthesis) on Truncated MAT II (α2 dimer + ΔS16 β)

[2] = biological target: T2, MAT II (α2 dimer + wild type β hetero-trimer) (Homo sapiens, UniProt P31153, G193S/A233V, form not given); assay: MAT activity assay (AdoMet synthesis); format: biochemical; conditions: 5 mM methionine, 37 °C, no added NADP+
T2 construct: gene MAT2A; hetero-trimer 2:1; with Methionine adenosyltransferase 2 subunit beta
Excerpt: MAT activity assay (AdoMet synthesis) on MAT II (α2 dimer + wild type β hetero-trimer)

[3] = biological target: T3, refolded-α2 (MAT α2 homo-dimer) (Homo sapiens, UniProt P31153, G193S/A233V); assay: MAT activity assay (AdoMet synthesis); format: biochemical; conditions: 5 mM methionine, 37 °C, no added NADP+
T3 construct: gene MAT2A; 43447 Da; dimer (tetramer at higher concentration); all cloned ORFs carry A233V and G193S
Excerpt: MAT activity assay (AdoMet synthesis) on refolded-α2 (MAT α2 homo-dimer)

[4] = biological target: T4, MAT β subunit (regulatory β subunit, V1 form) (Homo sapiens, UniProt Q9NZL9, K163A/Y159F); assay: isothermal titration calorimetry; format: binding
T4 construct: gene MAT2B; full length V1 from GST fusion in E. coli, TEV-cut, GSH linker retained at N-terminus; monomer/dimer equilibrium
T4 sequence (Q9NZL9 1-334 Y159F/K163A): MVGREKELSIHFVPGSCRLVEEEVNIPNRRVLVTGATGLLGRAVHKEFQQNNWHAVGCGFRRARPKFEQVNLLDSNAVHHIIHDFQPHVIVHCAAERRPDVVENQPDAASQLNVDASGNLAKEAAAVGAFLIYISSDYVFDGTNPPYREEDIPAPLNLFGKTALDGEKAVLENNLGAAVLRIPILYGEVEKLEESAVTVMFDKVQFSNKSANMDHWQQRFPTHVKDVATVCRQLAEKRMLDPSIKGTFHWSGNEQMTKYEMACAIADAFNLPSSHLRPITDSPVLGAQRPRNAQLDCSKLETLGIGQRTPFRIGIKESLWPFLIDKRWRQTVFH

[5] = biological target: T5, MAT β subunit (regulatory β subunit, V1 form) (Homo sapiens, UniProt Q9NZL9); assay: isothermal titration calorimetry; format: binding; conditions: read-out: NADP^+→β
T5 construct: gene MAT2B; full length V1 from GST fusion in E. coli, TEV-cut, GSH linker retained at N-terminus; monomer/dimer equilibrium
T5 sequence (Q9NZL9 1-334): T4 sequence (Q9NZL9 1-334 Y159F/K163A) with F159Y, A163K
Excerpt: isothermal titration calorimetry on MAT β subunit (regulatory β subunit, V1 form)

T1 sequence (P31153 whole entry G193S/A233V, stated change not applied, the tested form may be a part): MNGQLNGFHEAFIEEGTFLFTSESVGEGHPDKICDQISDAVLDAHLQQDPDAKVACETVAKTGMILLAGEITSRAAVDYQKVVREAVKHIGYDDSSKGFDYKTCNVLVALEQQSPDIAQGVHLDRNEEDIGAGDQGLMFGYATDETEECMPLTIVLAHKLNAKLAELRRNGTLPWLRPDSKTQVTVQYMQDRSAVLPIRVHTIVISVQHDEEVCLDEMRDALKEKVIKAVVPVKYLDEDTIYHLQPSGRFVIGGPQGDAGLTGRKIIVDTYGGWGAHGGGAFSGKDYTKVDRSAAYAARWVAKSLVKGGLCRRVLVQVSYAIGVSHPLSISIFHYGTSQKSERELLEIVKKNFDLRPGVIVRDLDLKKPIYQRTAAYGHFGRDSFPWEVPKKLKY
T1 sequence (Q9NZL9 17-334 partner limits assumed, stated change not applied): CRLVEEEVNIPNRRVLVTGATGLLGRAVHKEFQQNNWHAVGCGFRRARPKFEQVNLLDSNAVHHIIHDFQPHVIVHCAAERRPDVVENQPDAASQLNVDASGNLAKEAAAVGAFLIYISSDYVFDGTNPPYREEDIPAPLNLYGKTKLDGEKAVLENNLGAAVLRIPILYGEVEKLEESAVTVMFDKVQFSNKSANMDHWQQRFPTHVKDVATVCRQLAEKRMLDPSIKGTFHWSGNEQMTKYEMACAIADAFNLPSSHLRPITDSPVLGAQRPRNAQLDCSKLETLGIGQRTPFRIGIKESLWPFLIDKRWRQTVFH
T2 sequence (P31153 whole entry G193S/A233V, form open, one chain of several): as the sequence (P31153 whole entry G193S/A233V, stated change not applied, the tested form may be a part) above
T3 sequence (P31153 whole entry G193S/A233V): as the sequence (P31153 whole entry G193S/A233V, stated change not applied, the tested form may be a part) above

Row | Km [1] [µM] | Km [2] [µM] | Km [3] [µM] | Kd [4] [nM] | Kd [5] [nM] | SMILES
1 | 151 ± 81.4 | 125 ± 32.2 | 254 ± 66.2 | – | – | Nc1ncnc2c1ncn2[C@@H]1O[C@H](COP(=O)(O)OP(=O)(O)OP(=O)(O)O)[C@@H](O)[C@H]1O [ATP]
2 | – | – | – | > 150000 | 1700 | NC(=O)c1ccc[n+]([C@@H]2O[C@H](COP(=O)(O)OP(=O)(O)OC[C@H]3O[C@@H](n4cnc5c(N)ncnc54)[C@H](OP(=O)(O)O)[C@@H]3O)[C@@H](O)[C@H]2O)c1 [NADP^+]
